Laboratory results taken from patent publication US9447084B2, “Antiparisitic and pesticidal isoxazoline compounds” (MERIAL LIMITED, priority 2013, dated 2016).

test system: Ctenocephalides felis; experiment: Efficacy of compounds against fleas following ingestion (membrane feeding on treated bovine blood); format: in vivo; details: 10 adult Ctenocephalides felis feeding on treated bovine blood; assessment at 72 hours after application vs untreated controls
Protocol: A cylindrical test container was filled with 10 adult Ctenocephalides felis. A cylindrical well was closed on one end with a self-sealing flexible film and placed on top of the test container in such a position that the fleas could pierce the film and feed on the contents of the cylinder. The test compound solution was then pipetted into bovine blood and added to the well. The container part with the Ctenocephalides felis was held at 20-22° C. and 40-60% relative humidity while the well part containing the treated blood was held at 37° C. and 40-60% relative humidity. Assessment was performed at 72 hours after application in comparison with untreated controls. […] In this regard, the efficacy of the compounds of the invention having at least one carbonyl group in Ring D against fleas was compared with the efficacy of corresponding compounds that are not substituted with a carbonyl group in Ring D using the method of Example 19.

SMILES | EC50 [µg/mL]
O=C1CN(C(=O)c2ccc(C3=NOC(c4cc(Cl)cc(C(F)(F)F)c4)(C(F)(F)F)C3)cc2CC(F)(F)F)CN1CCC(F)(F)F (stereo not drawn) [Compound 99, 1-[(4-[5-[3-chloro-5-(trifluoromethyl)phenyl]-5-(trifluoromethyl)-4,5-dihydro-1,2-oxazol-3-yl]-2-(2,2,2-trifluoroethyl)phenyl)carbonyl]-3-(3,3,3-trifluoropropyl)imidazolidin-4-one] | ≤ 1
Cc1cc(C2=NOC(c3cc(Cl)cc(C(F)(F)F)c3)(C(F)(F)F)C2)ccc1C(=O)N1CC(=O)N(CCC(F)(F)F)C1 (stereo not drawn) [Compound 80, 1-[(4-[5-[3-chloro-5-(trifluoromethyl)phenyl]-5-(trifluoromethyl)-4,5-dihydro-1,2-oxazol-3-yl]-2-methylphenyl)carbonyl]-3-(3,3,3-trifluoropropyl)imidazolidin-4-one] | ≤ 0.1
O=C1CN(C(=O)c2ccc(C3=NOC(c4cc(Cl)cc(C(F)(F)F)c4)(C(F)(F)F)C3)cc2C(F)(F)F)CN1CC(F)(F)F (stereo not drawn) [Compound 96, 1-[(4-[5-[3-chloro-5-(trifluoromethyl)phenyl]-5-(trifluoromethyl)-4,5-dihydro-1,2-oxazol-3-yl]-2-(trifluoromethyl)phenyl)carbonyl]-3-(2,2,2-trifluoroethyl)imidazolidin-4-one] | ≤ 1
O=C(NN1CCCN(CC(F)(F)F)C1=O)c1ccc(C2=NOC(c3cc(Cl)cc(C(F)(F)F)c3)(C(F)(F)F)C2)cc1C(F)(F)F (stereo not drawn) [Compound 97, 4-[5-[3-chloro-5-(trifluoromethyl)phenyl]-5-(trifluoromethyl)-4,5-dihydro-1,2-oxazol-3-yl]-N-[2-oxo-3-(2,2,2-trifluoroethyl)-1,3-diazinan-1-yl]-2-(trifluoromethyl)benzamide] | ≤ 1
Cc1cc(C2=NOC(c3cc(Cl)cc(Cl)c3)(C(F)(F)F)C2)ccc1C(=O)NN1CCN(CC(F)(F)F)C1=O (stereo not drawn) [Compound 67, 4-[5-(3,5-dichlorophenyl)-5-(trifluoromethyl)-4,5-dihydro-1,2-oxazol-3-yl]-2-methyl-N-[2-oxo-3-(2,2,2-trifluoroethyl)imidazolidin-1-yl]benzamide] | ≤ 1
O=C1CN(C(=O)c2ccc(C3=NOC(c4cc(Cl)cc(Cl)c4)(C(F)(F)F)C3)cc2C(F)(F)F)CN1CC(F)(F)F (stereo not drawn) [Compound 93, 1-([4-[5-(3,5-dichlorophenyl)-5-(trifluoromethyl)-4,5-dihydro-1,2-oxazol-3-yl]-2-(trifluoromethyl)phenyl]carbonyl)-3-(2,2,2-trifluoroethyl)imidazolidin-4-one] | ≤ 1
O=C1CN(C(=O)c2ccc(C3=NOC(c4cc(Cl)cc(C(F)(F)F)c4)(C(F)(F)F)C3)c3ccccc23)CN1CCC(F)(F)F (stereo not drawn) [Compound 112, 1-[(4-[5-[3-chloro-5-(trifluoromethyl)phenyl]-5-(trifluoromethyl)-4,5-dihydro-1,2-oxazol-3-yl]naphthalen-1-yl)carbonyl]-3-(3,3,3-trifluoropropyl)imidazolidin-4-one] | ≤ 0.1
Cc1cc(C2=NOC(c3cc(Cl)cc(C(F)(F)F)c3)(C(F)(F)F)C2)ccc1C(=O)NN1CCCN(CC(F)(F)F)C1=O (stereo not drawn) [Compound 70] | ≤ 1
O=C(NN1CCCN(CC(F)(F)F)C1=O)c1ccc(C2=NOC(c3cc(C(F)(F)F)cc(C(F)(F)F)c3)(C(F)(F)F)C2)cc1C(F)(F)F (stereo not drawn) [Compound 90, 4-[5-[3,5-bis(trifluoromethyl)phenyl]-5-(trifluoromethyl)-4,5-dihydro-1,2-oxazol-3-yl]-N-[2-oxo-3-(2,2,2-trifluoroethyl)-1,3-diazinan-1-yl]-2-(trifluoromethyl)benzamide] | ≤ 1
CCN1CCN(C(=O)c2ccc(C3=NOC(c4cc(Cl)cc(Cl)c4)(C(F)(F)F)C3)cc2C)C1=O (stereo not drawn) [Compound 54] | ≤ 10
Cc1cc(C2=NOC(c3cc(Cl)c(F)c(Cl)c3)(C(F)(F)F)C2)ccc1C(=O)N1CC(=O)N(CCC(F)(F)F)C1 (stereo not drawn) [Compound 115, 1-([4-[5-(3,5-dichloro-4-fluorophenyl)-5-(trifluoromethyl)-4,5-dihydro-1,2-oxazol-3-yl]-2-methylphenyl]carbonyl)-3-(3,3,3-trifluoropropyl)imidazolidin-4-one] | ≤ 0.1
Cc1cc(C2=NOC(c3cc(Cl)cc(C(F)(F)F)c3)(C(F)(F)F)C2)ccc1C(=O)N1CCN(CCC(F)(F)F)C1 (stereo not drawn) [Compound 100] | ≤ 10
O=C(c1ccc(C2=NOC(c3cc(Cl)cc(Cl)c3)(C(F)(F)F)C2)cc1C(F)(F)F)N1CC(=O)N(CC(F)(F)F)C(=O)C1 (stereo not drawn) [Compound 92, 4-([4-[5-(3,5-dichlorophenyl)-5-(trifluoromethyl)-4,5-dihydro-1,2-oxazol-3-yl]-2-(trifluoromethyl)phenyl]carbonyl)-1-(2,2,2-trifluoroethyl)piperazine-2,6-dione] | ≤ 10
CCCN1C(=O)CN(C(=O)c2ccc(C3=NOC(c4cc(Cl)cc(C(F)(F)F)c4)(C(F)(F)F)C3)cc2C(F)(F)F)CC1=O (stereo not drawn) [Compound 95, 4-[(4-[5-[3-chloro-5-(trifluoromethyl)phenyl]-5-(trifluoromethyl)-4,5-dihydro-1,2-oxazol-3-yl]-2-(trifluoromethyl)phenyl)carbonyl]-1-propylpiperazine-2,6-dione] | ≤ 10
Cc1cc(C2=NOC(c3cc(Cl)cc(C(F)(F)F)c3)(C(F)(F)F)C2)ccc1C(=O)N1CC(=O)N(CC(F)(F)F)C1 (stereo not drawn) [Compound 71, 1-[(4-[5-[3-chloro-5-(trifluoromethyl)phenyl]-5-(trifluoromethyl)-4,5-dihydro-1,2-oxazol-3-yl]-2-methylphenyl)carbonyl]-3-(2,2,2-trifluoroethyl)imidazolidin-4-one] | ≤ 0.1
O=C(NN1CCCN(CC(F)(F)F)C1=O)c1ccc(C2=NOC(c3cc(Cl)cc(Cl)c3)(C(F)(F)F)C2)cc1C(F)(F)F (stereo not drawn) [Compound 91, 4-[5-(3,5-dichlorophenyl)-5-(trifluoromethyl)-4,5-dihydro-1,2-oxazol-3-yl]-N-[2-oxo-3-(2,2,2-trifluoroethyl)-1,3-diazinan-1-yl]-2-(trifluoromethyl)benzamide] | ≤ 1
O=C1CN(C(=O)c2ccc(C3=NOC(c4cc(Cl)cc(C(F)(F)F)c4)(C(F)(F)F)C3)cc2C(F)(F)F)CN1CCC(F)(F)F (stereo not drawn) [Compound 98, 1-[(4-[5-[3-chloro-5-(trifluoromethyl)phenyl]-5-(trifluoromethyl)-4,5-dihydro-1,2-oxazol-3-yl]-2-(trifluoromethyl)phenyl)carbonyl]-3-(3,3,3-trifluoropropyl)imidazolidin-4-one] | ≤ 1
Cc1cc(C2=NOC(c3cc(Cl)cc(C(F)(F)F)c3)(C(F)(F)F)C2)ccc1C(=O)N1CC(=O)N(CS(C)(=O)=O)C1 (stereo not drawn) [Compound 114, 1-[(4-[5-[3-Chloro-5-(trifluoromethyl)phenyl]-5-(trifluoromethyl)-4,5-dihydro-1,2-oxazol-3-yl]-2-methylphenyl)carbonyl]-3-(methanesulfonylmethyl)imidazolidin-4-one] | ≤ 10

same assay, conditions: efficacy against fleas, method of Example 19; compounds with vs without carbonyl group in Ring D

SMILES | EC50 (ppm)
Cc1cc(C2=NOC(c3cc(Cl)cc(C(F)(F)F)c3)(C(F)(F)F)C2)ccc1C(=O)N1CCN(CCC(F)(F)F)C1 (stereo not drawn) [drawing 156, reference compound] | 1-10 ppm
Cc1cc(C2=NOC(c3cc(Cl)cc(Cl)c3)(C(F)(F)F)C2)ccc1C(=O)N1CC(=O)NC(=O)C1 (stereo not drawn) | <0.1 ppm
Cc1cc(C2=NOC(c3cc(Cl)cc(Cl)c3)(C(F)(F)F)C2)ccc1C(=O)N1CCNCC1 (stereo not drawn) [reference compound] | 1-10 ppm
Cc1cc(C2=NOC(c3cc(Cl)cc(Cl)c3)(C(F)(F)F)C2)ccc1C(=O)N1CC(=O)N(CC(F)(F)F)C(=O)C1 (stereo not drawn) | <0.1 ppm
Cc1cc(C2=NOC(c3cc(Cl)cc(C(F)(F)F)c3)(C(F)(F)F)C2)ccc1C(=O)N1CC(=O)N(CCC(F)(F)F)C1 (stereo not drawn) [drawing 155] | <0.1 ppm
Cc1cc(C2=NOC(c3cc(Cl)cc(Cl)c3)(C(F)(F)F)C2)ccc1C(=O)N1CCN(CC(F)(F)F)CC1 (stereo not drawn) [reference compound] | 10-20 ppm
